Values belong to the substance of their own block, whether it stands above or below them.
Tests used:
Test in all cases: Phosphomimetic ProP-PD selection with NGS
[1] = target: T1, Scribble PDZ1 (Homo sapiens, UniProt Q14160); type: binding; details: for Mean fraction #NGS counts wt peptide / total counts selection / Mean fraction #NGS counts mimetic peptide / total count selection: bait Scribble PDZ1, mean of selections 1-3
T1 construct: human Scribble PDZ1 aa 719–829 in; made in house; host or cells: E. coli BL21 Gold (DE3)
Experimental: (§1) Phage selections were carried out for four rounds following a protocol by Huang and Sidhu (Huang & Sidhu, 2011) with minor modifications. Non‐specific binding phage was removed by pre‐selections against immobilized GST throughout the selection. The selections against the (pre‐)phosphorylated wild‐type library were performed in 50 mM HEPES (pH 7.4) and 150 mM NaCl (HBS) following the same procedure after pre‐phosphorylation of the library.
(§2) • Immobilize proteins (15 μg in 100 μl PBS) in a 96‐well MaxiSorp microtiter plate (NUNC) overnight at 4°C. • Start a 2YT culture of E. coli Omnimax supplemented with 100 μg/ml tetracycline to retain the F pilus epitope. • Block the wells with 200 μl 0.5% BSA in PBS for 2 h at 4°C. • Precipitate naïve phage library (10^11 cfu per selection) or amplified phage pool from the previous round of selection by adding one‐fifth the volume of PEG/NaCl. • Incubate on ice for 10 min, and pellet precipitated phage by centrifugation at 5,300 g for 15 min. Resuspend the phage pellet in 100 μl PBS per selection. • Add 100 μl of phage solution to the GST‐coated pre‐selection wells and incubate for 1 h. • Transfer the phage solution to the immobilized target proteins and allow it to bind for 2 h at 8°C. • Wash the plate four times with 200 μl cold wash buffer (PBS, 0.05% Tween‐20). • Elute bound phage by incubation with 100 μl log phase (0.6–0.8 OD600) E. coli Omnimax for 30 min at 37°C with shaking (200 RPM). • Add 10^12 cfu/ml M13K07 helper phage for hyperinfection of the bacteria and incubate as above for 45 min. • Transfer the bacterial culture to 10 ml 2YT supplemented with 50 μg/ml carbenicillin, 25 μg/ml kanamycin, and 300 μM IPTG and incubate overnight at 37°C while shaking. • Perform phage pool ELISA to monitor the progress of the selection as described previously (Huang & Sidhu, 2011).
(§3) The naïve library and the enriched phage pools of the third day of selection were amplified and barcoded by PCR and analyzed by NGS as described elsewhere (McLaughlin & Sidhu, 2013; Ivarsson et al, 2014). The reads were demultiplexed using the barcode sequences and filtered by discarding sequences with a Phred quality score under 30. Sequences were mapped to the original library using Bowtie (Langmead et al, 2009) with two mismatches between reads and library sequence. Nucleotide mutations leading to amino acid substitutions were subsequently removed. Cutoff values of NGS counts were assigned for each pool. PWMs were generated based on the remaining peptides (aligned on the C‐termini) using WebLogo (Crooks et al, 2004).
(§4) However, there was no significant correlation of the actual read counts (selection “strength”) and the initial representation in the library, reflecting the strong selection during phage display (wt+mimetic: P‐value: 0.49, ρ = −0.08, mimetic only: P‐value: 0.069, ρ = −0.2, wt only: P‐value: 0.12, ρ = 0.17). Consequently, the amount of reads for each binder after phage display is not a function of the amount of input reads in the naïve library and no modeling based on the input library frequencies to score the interactions is necessary. To allow for comparison between replicate selections, we used the fraction of NGS reads within a certain set, instead of the absolute number of NGS reads, as the absolute numbers differ between different NGS batches.

[2] = test system: Scribble PDZ3; type: binding, human; details: bait Scribble PDZ3
Experimental: as §1, §2, §3, §4

[3] = target: T2, DLG1 PDZ2 (Homo sapiens, UniProt Q12959); type: binding; details: mean of selections 1-3, bait DLG1 PDZ2
T2 construct: human DLG1 PDZ2 aa 311–407 in a modified pRSET vector 40; made in house; host or cells: E. coli BL21 Gold (DE3)
Experimental: as §1, §2, §3, §4

[4] = mean of selections 1-3, phosphomimetic peptide
[5] = mean of selections 1-3, wild type peptide

T2 sequence (Q12959 311-407): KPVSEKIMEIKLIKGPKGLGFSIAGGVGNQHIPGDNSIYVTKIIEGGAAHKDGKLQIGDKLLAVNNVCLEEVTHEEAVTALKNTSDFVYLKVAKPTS
T1 sequence (Q14160 719-829): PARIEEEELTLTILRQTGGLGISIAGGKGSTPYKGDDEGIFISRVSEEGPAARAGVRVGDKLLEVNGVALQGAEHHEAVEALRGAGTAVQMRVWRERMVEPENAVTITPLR

Mean fraction #NGS counts wt peptide / total counts selection [1]: 2.8701e-5
Substance: MKRLTSTRL
Mean fraction #NGS counts wt peptide / total counts selection ([2]; mean over selections 1-3): 3.6122e-5

Mean fraction #NGS counts mimetic peptide / total count selection [3]: 0.0001421
Substance: MRLQEETEV

Mean fraction #NGS counts mimetic peptide / total count selection [3]: 0.0002419
Substance: MRLQEETSV

Substance: NSTNMESEL
Mean fraction #NGS counts mimetic peptide / total count selection [2, 4]: 0.001938

Substance: NSTNMESSL
Mean fraction #NGS counts wt peptide / total counts selection [2, 5]: 0

Mean fraction #NGS counts mimetic peptide / total count selection [1]: 0.0001068
Substance: PEHVLQTQI

Substance: PIHELETEL
Mean fraction #NGS counts mimetic peptide / total count selection [2, 4]: 0.0005099

Mean fraction #NGS counts mimetic peptide / total count selection [1]: 0
Substance: PIHELETSL
Mean fraction #NGS counts mimetic peptide / total count selection ([2]; mean over selections 1-3): 0

Mean fraction #NGS counts mimetic peptide / total count selection [1]: 0
Substance: PIHSLEESL
Mean fraction #NGS counts mimetic peptide / total count selection ([2]; mean over selections 1-3): 7.932e-6

Mean fraction #NGS counts mimetic peptide / total count selection [1]: 0.002226
Substance: PIHSLETEL
Mean fraction #NGS counts mimetic peptide / total count selection ([2]; mean over selections 1-3): 0.002436

Mean fraction #NGS counts wt peptide / total counts selection [1]: 0.0009794
Substance: PIHSLETSL
Mean fraction #NGS counts wt peptide / total counts selection [2, 5]: 0.001163 | Mean fraction #NGS counts wt peptide / total counts selection ([2]; mean over selections 1-3): 0.001163

Substance: PLHELETEL
Mean fraction #NGS counts mimetic peptide / total count selection [2, 4]: 0.00248

Mean fraction #NGS counts mimetic peptide / total count selection [1]: 0
Substance: PLHELETSL
Mean fraction #NGS counts mimetic peptide / total count selection ([2]; mean over selections 1-3): 0

Mean fraction #NGS counts mimetic peptide / total count selection [1]: 0
Substance: PLHSLEESL
Mean fraction #NGS counts mimetic peptide / total count selection ([2]; mean over selections 1-3): 0

Mean fraction #NGS counts mimetic peptide / total count selection [1]: 0.01704
Substance: PLHSLETEL
Mean fraction #NGS counts mimetic peptide / total count selection ([2]; mean over selections 1-3): 0.01661

Mean fraction #NGS counts wt peptide / total counts selection [1]: 0.0001571
Substance: PLHSLETSL
Mean fraction #NGS counts wt peptide / total counts selection [2, 5]: 0.0002079 | Mean fraction #NGS counts wt peptide / total counts selection ([2]; mean over selections 1-3): 0.0002261

Mean fraction #NGS counts wt peptide / total counts selection [1]: 0
Substance: PTHVLQTQI

Mean fraction #NGS counts mimetic peptide / total count selection [1]: 0.002401
Substance: QKFRAETAL
Mean fraction #NGS counts mimetic peptide / total count selection ([2]; mean over selections 1-3): 0.001978

Mean fraction #NGS counts wt peptide / total counts selection [1]: 0
Substance: QKFRASTAL
Mean fraction #NGS counts wt peptide / total counts selection ([2]; mean over selections 1-3): 4.038e-6

Mean fraction #NGS counts mimetic peptide / total count selection [3]: 0
Substance: RATEWYSPY

Mean fraction #NGS counts wt peptide / total counts selection [3]: 0.002312
Substance: RATSWYSPY

Mean fraction #NGS counts mimetic peptide / total count selection [1]: 0.008773
Substance: RPHTNETEL
Mean fraction #NGS counts mimetic peptide / total count selection ([2]; mean over selections 1-3): 0.00587

Mean fraction #NGS counts wt peptide / total counts selection [1]: 0.0005328
Substance: RPHTNETSL
Mean fraction #NGS counts wt peptide / total counts selection ([2]; mean over selections 1-3): 0.0004079

Substance: RPLRREEEI
Mean fraction #NGS counts mimetic peptide / total count selection ([2]; mean over selections 1-3): 0

Mean fraction #NGS counts mimetic peptide / total count selection [3]: 0 | Mean fraction #NGS counts wt peptide / total counts selection [3]: 3.748e-5
Substance: RPLRRESEI
Mean fraction #NGS counts wt peptide / total counts selection ([2]; mean over selections 1-3): 8.219e-5

Mean fraction #NGS counts mimetic peptide / total count selection ([3]; phosphomimetic peptide): 0
Substance: RSEMKPGFV

Mean fraction #NGS counts wt peptide / total counts selection ([3]; wild type peptide): 0.02056
Substance: RSSMKPGFV

Mean fraction #NGS counts wt peptide / total counts selection ([3]; wild type peptide): 0.0005933
Substance: SATSVHTSV

Substance: SIDLWETAL
Mean fraction #NGS counts wt peptide / total counts selection ([2]; mean over selections 1-3): 0.004105

Mean fraction #NGS counts wt peptide / total counts selection [1]: 0.0001068
Substance: SPTVHVTEL
Mean fraction #NGS counts wt peptide / total counts selection ([2]; mean over selections 1-3): 5.538e-5

Substance: SQSRMETNM
Mean fraction #NGS counts mimetic peptide / total count selection ([2]; mean over selections 1-3): 0.0002587

Substance: SRKRTESFL
Mean fraction #NGS counts mimetic peptide / total count selection ([2]; mean over selections 1-3): 0.0004518

Substance: SRKRTSSFL
Mean fraction #NGS counts wt peptide / total counts selection ([2]; mean over selections 1-3): 0

Substance: TMFLRETEL‐coo‐
occurrence in NGS of the selection relative to wild‐type counterpart ([1]; phage-displayed peptide, phosphomimetic ProP‐PD selection against Scribble PDZ1): three times more

Mean fraction #NGS counts mimetic peptide / total count selection [1]: 0.005379
Substance: VKRLLESVF

Mean fraction #NGS counts wt peptide / total counts selection [1]: 0
Substance: VKRLLSSVF

Mean fraction #NGS counts mimetic peptide / total count selection [1]: 0
Substance: VREKLPSNL

Mean fraction #NGS counts mimetic peptide / total count selection [1]: 4.38e-5
Substance: VRKLPETEL
Mean fraction #NGS counts mimetic peptide / total count selection [2, 4]: 0.01059

Substance: VRKLPETTL
Mean fraction #NGS counts mimetic peptide / total count selection ([2]; mean over selections 1-3): 0.002417

Mean fraction #NGS counts wt peptide / total counts selection [1]: 4.38e-5
Substance: VRSKLPSNL

Substance: VTEERETNI
Mean fraction #NGS counts mimetic peptide / total count selection ([2]; mean over selections 1-3): 4.038e-6

Substance: VTSERETNI
Mean fraction #NGS counts wt peptide / total counts selection ([2]; mean over selections 1-3): 0.001424
